Experimental data taken from paper PMC6757289, “Design and Characterization of SGK3-PROTAC1, an Isoform Specific SGK3 Kinase PROTAC Degrader” (ACS Chemical Biology, 2019).
Where two headings read alike, the source gives them in different places.

Tests used:
Experiment in all cases: kinase profiling panel
Format in all cases: biochemical
Conditions in all cases: read-out: % Activity Remaining
MST4 = MST4 (Homo sapiens, UniProt Q9P289)
From the text: (§1) Protein kinase profiling against a Dundee panel of 140 protein kinases was undertaken at the International Centre for Protein Kinase Profiling. The result for each kinase was presented as a mean kinase activity of the reaction taken in triplicate relative to a control sample treated with DMSO. Assay conditions and abbreviations are available at http://www.kinase-screen.mrc.ac.uk.

MARK4 = target: T1, MARK4 (Homo sapiens, UniProt Q96L34)
T1 sequence (Q96L34 1-752): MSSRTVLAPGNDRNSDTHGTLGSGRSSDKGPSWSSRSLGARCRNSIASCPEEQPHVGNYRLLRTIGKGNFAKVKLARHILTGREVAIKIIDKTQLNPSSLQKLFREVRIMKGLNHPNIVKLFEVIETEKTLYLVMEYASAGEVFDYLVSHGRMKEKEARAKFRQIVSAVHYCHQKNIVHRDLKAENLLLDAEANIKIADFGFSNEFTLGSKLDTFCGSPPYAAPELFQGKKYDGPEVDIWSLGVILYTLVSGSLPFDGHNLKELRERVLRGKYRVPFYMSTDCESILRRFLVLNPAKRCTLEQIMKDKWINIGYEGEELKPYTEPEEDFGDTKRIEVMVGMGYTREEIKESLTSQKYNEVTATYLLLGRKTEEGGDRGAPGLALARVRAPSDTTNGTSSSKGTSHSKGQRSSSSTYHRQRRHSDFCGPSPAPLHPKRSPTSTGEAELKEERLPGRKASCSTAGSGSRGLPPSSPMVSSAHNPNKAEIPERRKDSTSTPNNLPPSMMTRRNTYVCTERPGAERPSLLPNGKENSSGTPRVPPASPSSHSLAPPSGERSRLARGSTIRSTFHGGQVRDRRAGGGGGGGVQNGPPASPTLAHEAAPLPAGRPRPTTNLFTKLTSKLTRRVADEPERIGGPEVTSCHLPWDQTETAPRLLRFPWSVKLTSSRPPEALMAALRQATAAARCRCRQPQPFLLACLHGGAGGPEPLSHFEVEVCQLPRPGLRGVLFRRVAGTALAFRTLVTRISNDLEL
From the text: as §1

CHK1 = target: T2, CHK1 (Homo sapiens, UniProt O14757)
T2 sequence (O14757 1-476): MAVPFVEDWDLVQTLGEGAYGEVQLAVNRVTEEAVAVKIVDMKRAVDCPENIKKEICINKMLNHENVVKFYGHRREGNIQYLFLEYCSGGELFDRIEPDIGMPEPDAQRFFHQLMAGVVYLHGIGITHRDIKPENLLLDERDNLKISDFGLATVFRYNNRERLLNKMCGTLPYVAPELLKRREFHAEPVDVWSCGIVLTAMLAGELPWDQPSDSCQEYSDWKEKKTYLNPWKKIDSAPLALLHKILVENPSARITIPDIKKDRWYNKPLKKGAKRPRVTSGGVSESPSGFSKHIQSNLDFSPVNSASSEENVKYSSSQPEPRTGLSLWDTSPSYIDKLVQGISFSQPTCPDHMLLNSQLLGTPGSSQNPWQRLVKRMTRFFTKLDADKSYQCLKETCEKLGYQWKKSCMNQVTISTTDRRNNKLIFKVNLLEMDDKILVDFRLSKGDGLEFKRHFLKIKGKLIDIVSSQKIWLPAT
From the text: as §1

p38 gamma MAPK = target: T3, p38 gamma MAPK (Homo sapiens, UniProt P53778)
T3 sequence (P53778 1-367): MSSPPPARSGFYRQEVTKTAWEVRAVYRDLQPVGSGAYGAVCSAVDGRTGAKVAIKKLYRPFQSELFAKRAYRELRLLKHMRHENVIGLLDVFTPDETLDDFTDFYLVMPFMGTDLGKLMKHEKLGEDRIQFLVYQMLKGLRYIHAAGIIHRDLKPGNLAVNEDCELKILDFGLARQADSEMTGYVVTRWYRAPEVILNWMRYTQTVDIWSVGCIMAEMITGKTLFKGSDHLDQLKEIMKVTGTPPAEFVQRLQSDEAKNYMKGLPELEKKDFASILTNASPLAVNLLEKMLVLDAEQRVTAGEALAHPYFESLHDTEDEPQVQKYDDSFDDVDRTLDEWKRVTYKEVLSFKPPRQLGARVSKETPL
From the text: as §1

OSR1 = OSR1 (Homo sapiens, UniProt O95747)
From the text: as §1

SYK = SYK (Homo sapiens, UniProt P43405)
From the text: as §1

DDR2 = target: T4, DDR2 (Homo sapiens, UniProt Q16832)
T4 sequence (Q16832 22-855): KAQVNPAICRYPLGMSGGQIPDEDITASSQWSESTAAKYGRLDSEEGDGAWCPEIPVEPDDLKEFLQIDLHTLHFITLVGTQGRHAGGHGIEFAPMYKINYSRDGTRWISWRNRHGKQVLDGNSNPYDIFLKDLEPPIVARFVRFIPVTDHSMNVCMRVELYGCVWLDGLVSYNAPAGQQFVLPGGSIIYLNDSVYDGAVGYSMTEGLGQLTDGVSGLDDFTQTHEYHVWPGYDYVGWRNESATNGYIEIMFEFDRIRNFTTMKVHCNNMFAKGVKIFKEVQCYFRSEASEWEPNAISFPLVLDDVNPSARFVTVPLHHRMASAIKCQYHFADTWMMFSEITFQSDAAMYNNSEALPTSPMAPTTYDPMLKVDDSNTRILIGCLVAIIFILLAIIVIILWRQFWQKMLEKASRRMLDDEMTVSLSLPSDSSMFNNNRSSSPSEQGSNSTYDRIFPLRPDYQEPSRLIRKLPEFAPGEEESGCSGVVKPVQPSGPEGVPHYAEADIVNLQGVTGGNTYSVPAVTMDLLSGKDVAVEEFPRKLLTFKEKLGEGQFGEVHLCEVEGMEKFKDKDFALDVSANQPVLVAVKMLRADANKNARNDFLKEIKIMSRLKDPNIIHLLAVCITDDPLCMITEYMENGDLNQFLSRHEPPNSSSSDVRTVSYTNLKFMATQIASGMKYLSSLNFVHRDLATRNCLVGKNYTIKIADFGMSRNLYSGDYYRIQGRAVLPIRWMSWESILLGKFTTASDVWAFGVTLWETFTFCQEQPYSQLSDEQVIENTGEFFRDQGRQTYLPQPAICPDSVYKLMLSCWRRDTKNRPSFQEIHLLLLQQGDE
From the text: as §1

MST4, sequence (Q9P289 whole entry): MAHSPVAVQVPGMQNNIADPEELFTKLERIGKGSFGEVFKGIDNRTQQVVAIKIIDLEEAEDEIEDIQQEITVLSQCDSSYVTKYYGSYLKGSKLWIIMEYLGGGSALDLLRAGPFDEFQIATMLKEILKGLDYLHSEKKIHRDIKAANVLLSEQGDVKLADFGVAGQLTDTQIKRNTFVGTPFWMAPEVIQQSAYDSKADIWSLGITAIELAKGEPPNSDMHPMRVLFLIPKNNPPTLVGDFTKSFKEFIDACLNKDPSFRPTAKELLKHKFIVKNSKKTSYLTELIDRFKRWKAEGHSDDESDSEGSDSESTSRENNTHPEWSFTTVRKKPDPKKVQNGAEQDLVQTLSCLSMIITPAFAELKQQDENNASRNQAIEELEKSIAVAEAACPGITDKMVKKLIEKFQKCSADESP
OSR1, sequence (O95747 whole entry): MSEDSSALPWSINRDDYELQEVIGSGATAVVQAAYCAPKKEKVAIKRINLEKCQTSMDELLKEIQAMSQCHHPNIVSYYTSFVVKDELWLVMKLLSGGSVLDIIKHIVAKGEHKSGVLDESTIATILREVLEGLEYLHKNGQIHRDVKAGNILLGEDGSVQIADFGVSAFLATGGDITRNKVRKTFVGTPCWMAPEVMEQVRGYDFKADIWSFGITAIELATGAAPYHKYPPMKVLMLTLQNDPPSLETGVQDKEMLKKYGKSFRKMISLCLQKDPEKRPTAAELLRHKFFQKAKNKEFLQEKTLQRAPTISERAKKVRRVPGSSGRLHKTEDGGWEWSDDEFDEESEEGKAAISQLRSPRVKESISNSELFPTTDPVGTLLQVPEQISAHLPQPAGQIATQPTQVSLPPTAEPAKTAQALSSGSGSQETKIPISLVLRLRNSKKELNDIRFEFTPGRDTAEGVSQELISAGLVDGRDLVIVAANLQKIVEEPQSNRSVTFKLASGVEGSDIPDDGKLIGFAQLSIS

| SMILES | remaining activity at 1 µM (MST4) | remaining activity at 1 µM (MARK4) | remaining activity at 1 µM (CHK1) | remaining activity at 1 µM (p38 gamma MAPK) | remaining activity at 1 µM (OSR1) | remaining activity at 1 µM (SYK) | remaining activity at 1 µM (DDR2) | remaining activity at 1 µM (MST4; 1 µM) | remaining activity at 1 µM (MARK4; 1 µM) | remaining activity at 1 µM (CHK1; 1 µM) | remaining activity at 1 µM (p38 gamma MAPK; 1 µM) | remaining activity at 1 µM (OSR1; 1 µM) | remaining activity at 1 µM (SYK; 1 µM) | remaining activity at 1 µM (DDR2; 1 µM) |
| --- | --- | --- | --- | --- | --- | --- | --- | --- | --- | --- | --- | --- | --- | --- |
| COc1ccc(Cl)c(S(=O)(=O)Nc2ccc(-c3nc(OC[C@H]4CNCCO4)c4c(C)n[nH]c4n3)cc2)c1 [290-R, reference compound] | 50% | 98% | 95% | 112% | 110% | 88% | 80% | – | – | – | – | – | – | – |
| Cc1ccc(F)c(S(=O)(=O)Nc2ccc(-c3nc(OC[C@H]4CNCCO4)c4cn[nH]c4n3)cc2)c1 [308-R, reference compound] | 98% | 73% | 109% | 111% | 75% | 100% | 106% | – | – | – | – | – | – | – |
| Cc1ccc(F)c(S(=O)(=O)Nc2ccc(-c3nc(OC[C@H]4CN(CCCCCCOCCOCCOCC(=O)N[C@H](C(=O)N5C[C@H](O)C[C@H]5C(=O)NCc5ccc(-c6scnc6C)cc5)C(C)(C)C)CCO4)c4cn[nH]c4n3)cc2)c1 [SGK3-PROTAC1] | – | – | – | – | – | – | – | 106% | 105% | 111% | 107% | 103% | 116% | 114% |
| Cc1ccc(F)c(S(=O)(=O)Nc2ccc(-c3nc(OC[C@H]4CN(CCCCCCOCCOCCOCC(=O)N[C@H](C(=O)N5C[C@@H](O)C[C@H]5C(=O)NCc5ccc(-c6scnc6C)cc5)C(C)(C)C)CCO4)c4cn[nH]c4n3)cc2)c1 [cisSGK3-PROTAC1] | – | – | – | – | – | – | – | 99% | 100% | 126% | 127% | 118% | 103% | 134% |
